In paper PMC11413503, “SCR‐7952, a highly selective MAT2A inhibitor, demonstrates synergistic antitumor activities in combination with the S‐adenosylmethionine‐competitive or the methylthioadenosine‐cooperative protein arginine methyltransferase 5 inhibitors in methylthioadenosine phosphorylase‐deleted tumors” (MedComm, 2024):
pEC50, pIC50, pKi: −log10 of the molar value.

What was measured:
[1] = target: T1, MAT2A (Homo sapiens, UniProt P31153); test: MAT2A enzymatic activity, biochemical assay (phosphate release)
T1 construct: purchased Pharmaron 210405‐HWR‐20210429
Experimental: The test compound was prepared in dimethyl sulfoxide (DMSO). […] Then, 40 µL of enzyme dilution was added and the mixture was incubated for 120 min at room temperature. The enzymatic assay was initiated by adding 40 µL of substrate mix (a final dose of 400 µM ATP and a final dose of 200 µM L‐methionine in assay buffer), and the mixture was incubated for a further 90 min at room temperature. The liberated phosphate released by the enzyme in stoichiometric amounts by the production of SAM was measured using the Phosphate Assay Kit—PiColorLock™ (Abcam, UK). Velocity curves were fit to the standard Michaelis‐Menten equation to yield V max and K m.

[2] = system: HCT116 MTAP−/− cells; test: Intracellular SAM inhibition assay; format: cell-based; conditions: Homo sapiens, HCT-116; HCT116 MTAP−/− cells, 6 h treatment; read-out: IC50, cellular SAM levels
Experimental: MAT2A inhibition in the cellular environment was monitored by measurement of the abundance of its product SAM in HCT116 MTAP ^−/− cells. HCT116 MTAP ^−/− cells were plated in 96‐well cell culture plates at 50,000 cells per well and allowed to attach overnight at 37°C in 5% CO2. Compounds were added in a dose–response format to generate a 10‐point dose–response curve. Doses were started at a 10 µM top concentration with 1:5 serial dilution. After 6 h of incubation, the medium was removed and cells were extracted with 50% methanol containing 1 M acetic acid for SAM metabolite measurement by UPLC‐MS/MS.
The standard SAM solution was prepared in a surrogate matrix of 50% methanol containing 1 M acetic acid with a concentration range of 3–1000 ng/mL. The quality control sample was prepared in the same surrogate matrix. SAM‐d 3 was used as the internal standard (IS). A Waters UPLC system coupled with a SCIEX Triple Quad™ 6500^+ mass spectrometer […] was used to analyze the samples. Samples were separated on an ACQUITY UPLC® BEH amide column (2.1 × 50 mm, 1.7 µm). The mobile phase consisted of 5% acetonitrile containing 5 mM NH4OAc and 1% (v/v) formic acid (A) and 95% acetonitrile containing 5 mM NH4OAc and 1% (v/v) formic acid (B). […] SAM and SAM‐d 3 were detected with multiple‐reaction monitoring of a mass transition pair at m/z 399.2/250.2 and […], respectively.

[3] = Plasma pharmacokinetics after multiple administration in xenograft mice; format: in vivo; conditions: SCR-7952 1.0 mg/kg
[4] = Functional panel of 47 representative targets; conditions: at 10 µM
[5] = system: HCT116 MTAP−/− xenograft; test: Xenograft combination treatment study; format: in vivo, mice; conditions: SCR-7952 0.3 mg/kg alone
Experimental: Subcutaneous injections of HCT116 MTAP ^−/− cells were performed (5 × 10^6 cells in 100 µL) into Nu/Nu female mice. Mice were observed daily for the development of tumors. Six days after tumor implantation, mice were randomly distributed into different groups. SCR‐7952, AG‐270, JNJ‐64619178, or vehicle (water with 5% N‐methylpyrrolidone and 10% solutol HS‐15) were daily administrated by oral gavage. Tumor volumes and body weights were recorded three times per week. Tumor volumes were measured in two dimensions using a caliper, and the volume was expressed in mm^3 using the formula: V = (L × W × W)/2, where V is tumor volume, L is tumor length (the longest tumor dimension), and W is tumor width (perpendicular to L). The tumor growth inhibition rate (TGI%) of each dosing group was calculated according to the following formula: %TGI = (1 − (V t(treatment group) − V 0(treatment group))/(V t(vehicle group) − V 0(vehicle group))) × 100%, where V t is average tumor volume of a dosing group on a specific day, V 0 is average tumor volume of a dosing group on the initial day. At the end of the study, plasma and tumor tissues were collected and stored at −80°C for further measurement.

[6] = system: SDMA; test: Tumor SDMA levels in combination xenograft study; format: in vivo, mice; conditions: SCR-7952 0.3 mg/kg alone
[7] = target: AVPR1A (Homo sapiens, UniProt P37288); test: Mini-profiling panel, GPCR; format: cell-based; conditions: GPCR Targets
[8] = target: HRH1 (Homo sapiens, UniProt P35367); test: Mini-profiling panel, GPCR; format: cell-based; conditions: GPCR Targets
[9] = target: NET (Homo sapiens, UniProt P23975); test: Mini-profiling panel, transporter; format: cell-based
Experimental: (§1) Further insight into selectivity was evaluated in a functional panel of 47 representative targets closely related to human life activities, including G protein‐coupled receptors, transporters, ion channels, kinases, nuclear hormone receptor targets, and nonkinase enzymes (Table S3).

[10] = target: hERG (Homo sapiens, UniProt Q12809); test: Mini-profiling panel, ion channel; format: cell-based; conditions: Ion Channels; read-out: hERG Blocker IC50
[11] = target: ROCK1 (Homo sapiens, UniProt Q13464); test: Mini-profiling panel, kinase; format: biochemical; conditions: Kinases; read-out: ROCK1 Inhibitor IC50
[12] = target: AR (Homo sapiens, UniProt P10275); test: Mini-profiling panel, nuclear hormone receptor; format: cell-based
Experimental: as §1

[13] = target: COX1 (Homo sapiens, UniProt P23219); test: Mini-profiling panel, non-kinase enzyme; format: biochemical; conditions: Non-Kinase Enzymes; read-out: COX1 Inhibitor IC50
[14] = target: COX2 (Homo sapiens, UniProt P35354); test: Mini-profiling panel, non-kinase enzyme; format: biochemical; conditions: Non-Kinase Enzymes; read-out: COX2 Inhibitor IC50
[15] = target: PDE4D2 (Homo sapiens, UniProt Q08499); test: Mini-profiling panel, non-kinase enzyme; format: biochemical; conditions: Non-Kinase Enzymes; read-out: PDE4D2 Inhibitor IC50
Sequence of PDE4D2 (Q08499 303-809 limits assumed): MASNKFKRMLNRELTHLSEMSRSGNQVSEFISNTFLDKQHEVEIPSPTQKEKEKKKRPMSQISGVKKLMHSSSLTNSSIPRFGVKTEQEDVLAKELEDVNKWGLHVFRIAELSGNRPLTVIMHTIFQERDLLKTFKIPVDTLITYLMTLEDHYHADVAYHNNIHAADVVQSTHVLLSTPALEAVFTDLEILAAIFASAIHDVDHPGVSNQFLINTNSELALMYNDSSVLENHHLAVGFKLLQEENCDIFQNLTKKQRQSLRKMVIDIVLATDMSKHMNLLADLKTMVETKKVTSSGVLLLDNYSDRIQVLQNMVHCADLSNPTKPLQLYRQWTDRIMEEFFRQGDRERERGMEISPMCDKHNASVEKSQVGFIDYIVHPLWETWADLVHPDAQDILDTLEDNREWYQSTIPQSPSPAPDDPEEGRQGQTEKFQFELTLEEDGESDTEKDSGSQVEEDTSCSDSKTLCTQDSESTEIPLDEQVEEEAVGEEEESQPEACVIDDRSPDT

T1 sequence (P31153 whole entry): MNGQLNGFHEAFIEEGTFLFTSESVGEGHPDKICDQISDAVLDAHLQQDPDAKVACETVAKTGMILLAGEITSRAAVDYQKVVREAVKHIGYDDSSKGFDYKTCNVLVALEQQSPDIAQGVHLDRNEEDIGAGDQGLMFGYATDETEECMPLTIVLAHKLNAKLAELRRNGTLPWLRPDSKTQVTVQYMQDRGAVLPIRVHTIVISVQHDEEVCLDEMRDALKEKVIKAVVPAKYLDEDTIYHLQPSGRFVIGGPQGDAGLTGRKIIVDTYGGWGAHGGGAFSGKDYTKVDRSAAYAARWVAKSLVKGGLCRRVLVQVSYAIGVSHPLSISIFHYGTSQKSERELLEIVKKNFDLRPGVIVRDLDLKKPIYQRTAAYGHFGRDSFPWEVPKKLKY
Sequence of AVPR1A (P37288 whole entry, species assumed): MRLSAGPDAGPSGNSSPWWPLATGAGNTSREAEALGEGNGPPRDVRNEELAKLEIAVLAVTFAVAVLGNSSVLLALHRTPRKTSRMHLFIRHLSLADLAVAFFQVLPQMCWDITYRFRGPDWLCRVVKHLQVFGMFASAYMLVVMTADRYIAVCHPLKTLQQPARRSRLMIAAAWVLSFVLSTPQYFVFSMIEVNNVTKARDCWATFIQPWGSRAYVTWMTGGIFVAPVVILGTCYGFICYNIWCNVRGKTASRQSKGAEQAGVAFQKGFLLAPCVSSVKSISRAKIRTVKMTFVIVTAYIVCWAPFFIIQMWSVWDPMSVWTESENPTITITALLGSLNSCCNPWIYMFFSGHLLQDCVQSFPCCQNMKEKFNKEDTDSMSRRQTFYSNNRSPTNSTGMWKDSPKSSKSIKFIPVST
Sequence of HRH1 (P35367 whole entry, species assumed): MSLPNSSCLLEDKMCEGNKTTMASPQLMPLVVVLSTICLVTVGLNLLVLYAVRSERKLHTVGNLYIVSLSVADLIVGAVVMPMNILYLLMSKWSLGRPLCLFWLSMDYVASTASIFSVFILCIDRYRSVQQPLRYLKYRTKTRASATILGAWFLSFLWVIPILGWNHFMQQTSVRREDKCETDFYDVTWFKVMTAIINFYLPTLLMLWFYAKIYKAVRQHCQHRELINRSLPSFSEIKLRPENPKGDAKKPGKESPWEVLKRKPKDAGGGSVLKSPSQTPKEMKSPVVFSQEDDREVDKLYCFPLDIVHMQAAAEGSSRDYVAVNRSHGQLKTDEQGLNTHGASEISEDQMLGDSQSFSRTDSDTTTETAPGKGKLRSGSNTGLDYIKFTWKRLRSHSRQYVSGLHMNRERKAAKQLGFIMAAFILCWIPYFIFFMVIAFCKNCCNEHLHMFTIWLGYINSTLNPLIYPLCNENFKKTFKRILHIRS
Sequence of AR (P10275 whole entry): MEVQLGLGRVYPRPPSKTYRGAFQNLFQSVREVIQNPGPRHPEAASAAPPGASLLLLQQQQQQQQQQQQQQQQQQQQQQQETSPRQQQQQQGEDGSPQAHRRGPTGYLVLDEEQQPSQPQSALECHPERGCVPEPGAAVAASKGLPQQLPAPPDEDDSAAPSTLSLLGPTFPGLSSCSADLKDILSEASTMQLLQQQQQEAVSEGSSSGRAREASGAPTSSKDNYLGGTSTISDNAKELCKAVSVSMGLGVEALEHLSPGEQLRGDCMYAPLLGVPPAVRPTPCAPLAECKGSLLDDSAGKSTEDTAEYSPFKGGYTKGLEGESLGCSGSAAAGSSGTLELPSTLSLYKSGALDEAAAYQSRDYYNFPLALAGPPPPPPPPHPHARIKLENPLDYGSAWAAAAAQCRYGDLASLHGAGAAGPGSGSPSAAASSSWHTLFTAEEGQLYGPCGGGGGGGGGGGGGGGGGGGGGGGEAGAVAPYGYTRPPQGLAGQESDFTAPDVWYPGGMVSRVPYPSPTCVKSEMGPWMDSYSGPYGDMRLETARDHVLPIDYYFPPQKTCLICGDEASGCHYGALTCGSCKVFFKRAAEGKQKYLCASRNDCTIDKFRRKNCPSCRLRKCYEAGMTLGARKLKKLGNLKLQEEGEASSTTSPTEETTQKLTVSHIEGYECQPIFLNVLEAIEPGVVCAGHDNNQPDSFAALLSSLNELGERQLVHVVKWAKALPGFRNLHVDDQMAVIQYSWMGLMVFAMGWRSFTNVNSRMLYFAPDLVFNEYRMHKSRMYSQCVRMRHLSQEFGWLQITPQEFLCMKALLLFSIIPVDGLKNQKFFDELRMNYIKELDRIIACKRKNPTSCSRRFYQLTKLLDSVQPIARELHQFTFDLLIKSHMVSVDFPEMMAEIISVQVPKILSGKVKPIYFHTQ
Sequence of COX1 (P23219 24-599): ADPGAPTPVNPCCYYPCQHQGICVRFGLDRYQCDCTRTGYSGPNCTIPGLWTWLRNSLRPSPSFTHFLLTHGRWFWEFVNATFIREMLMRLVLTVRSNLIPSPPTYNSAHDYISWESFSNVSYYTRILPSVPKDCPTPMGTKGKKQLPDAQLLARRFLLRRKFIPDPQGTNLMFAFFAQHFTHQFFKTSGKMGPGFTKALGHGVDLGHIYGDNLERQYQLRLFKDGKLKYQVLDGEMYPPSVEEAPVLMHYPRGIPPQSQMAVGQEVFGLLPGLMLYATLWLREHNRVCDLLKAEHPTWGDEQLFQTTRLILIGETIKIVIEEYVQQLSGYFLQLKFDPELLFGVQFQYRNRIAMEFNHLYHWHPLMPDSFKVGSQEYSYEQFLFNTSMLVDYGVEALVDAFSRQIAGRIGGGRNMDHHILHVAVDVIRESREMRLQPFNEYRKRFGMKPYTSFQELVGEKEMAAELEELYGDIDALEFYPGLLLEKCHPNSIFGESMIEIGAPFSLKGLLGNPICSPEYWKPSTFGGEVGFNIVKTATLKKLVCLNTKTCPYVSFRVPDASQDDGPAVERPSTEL
Sequence of NET (P23975 whole entry): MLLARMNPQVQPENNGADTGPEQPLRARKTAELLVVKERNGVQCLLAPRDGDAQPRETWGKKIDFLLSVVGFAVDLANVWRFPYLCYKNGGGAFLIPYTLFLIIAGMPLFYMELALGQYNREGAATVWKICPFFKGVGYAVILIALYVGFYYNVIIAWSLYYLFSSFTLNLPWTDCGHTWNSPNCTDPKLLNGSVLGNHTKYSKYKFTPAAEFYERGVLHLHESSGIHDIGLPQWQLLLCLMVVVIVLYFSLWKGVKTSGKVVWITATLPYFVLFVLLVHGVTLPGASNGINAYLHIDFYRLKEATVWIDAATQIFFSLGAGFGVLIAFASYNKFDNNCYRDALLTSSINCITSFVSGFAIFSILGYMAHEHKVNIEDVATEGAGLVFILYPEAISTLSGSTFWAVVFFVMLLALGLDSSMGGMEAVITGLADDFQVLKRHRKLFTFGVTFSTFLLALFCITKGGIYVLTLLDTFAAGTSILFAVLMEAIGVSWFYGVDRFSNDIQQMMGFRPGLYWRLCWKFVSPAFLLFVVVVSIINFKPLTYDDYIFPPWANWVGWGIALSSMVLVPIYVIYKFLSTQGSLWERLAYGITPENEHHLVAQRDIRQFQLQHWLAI
Sequence of COX2 (P35354 18-604): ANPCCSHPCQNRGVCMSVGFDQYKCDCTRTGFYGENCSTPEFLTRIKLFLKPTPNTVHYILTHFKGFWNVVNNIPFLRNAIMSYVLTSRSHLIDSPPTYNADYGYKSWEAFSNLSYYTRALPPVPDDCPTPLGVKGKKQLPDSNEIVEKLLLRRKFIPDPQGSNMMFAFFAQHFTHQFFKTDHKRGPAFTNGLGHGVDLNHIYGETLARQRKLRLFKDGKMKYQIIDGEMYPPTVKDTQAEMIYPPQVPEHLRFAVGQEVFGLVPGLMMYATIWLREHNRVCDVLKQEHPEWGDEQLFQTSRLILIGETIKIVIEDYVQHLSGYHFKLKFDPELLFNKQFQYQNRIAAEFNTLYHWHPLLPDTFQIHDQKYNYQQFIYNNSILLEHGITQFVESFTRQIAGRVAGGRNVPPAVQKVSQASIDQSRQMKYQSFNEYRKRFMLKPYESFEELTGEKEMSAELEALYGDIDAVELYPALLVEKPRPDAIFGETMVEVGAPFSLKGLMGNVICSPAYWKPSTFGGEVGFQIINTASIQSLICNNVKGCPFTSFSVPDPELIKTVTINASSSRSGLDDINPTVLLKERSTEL

Cn1cnc2c(=O)n(-c3cccnc3C3CC3)c3cc(Cl)ccc3c21 [SCR‐7952, 7‐chloro‐5‐(2‐cyclopropylpyridin‐3‐yl)‐1‐methyl‐1,5‐dihydro‐4H‐imidazo[4,5‐c]quinolin‐4‐one]
fold more potent than AG-270 on MAT2A enzymatic activity [1]: 3.7 fold
pIC50 ([1]; biochemical assay, read-out: IC50, MAT2A enzyme): 7.73
pKi ([1]; in the presence of substrate methionine, Michaelis–Menten approach): 7.84
α value ([1]; noncompetitive inhibition for methionine): 1.193
pIC50 [2]: 8.72
AUC(0-t) ([3]; Nu/Nu, mouse, oral, plasma, HCT116 MTAP−/− xenograft mice, read-out: AUC0-24h total): 15800 ng·h/mL
AUC0-24h free drug ([3]; calculated): 1442 ng·h/mL
agonistic or antagonistic activities on 47 targets [4]: did not exhibit significant pharmacological effects
TGI [5]: 55.0%
tumor SDMA levels [6]: remarkable reduction
pEC50 ([7]; read-out: AVPR1A Agonism EC50): < 5.00
pIC50 ([7]; read-out: AVPR1A Antagonism IC50): < 5.00
pEC50 ([8]; read-out: HRH1 Agonism EC50): < 5.00
pIC50 ([8]; read-out: HRH1 Antagonism IC50): < 5.00
pIC50 [9]: < 5.00
pIC50 [10]: < 5.00
pIC50 [11]: < 5.00
pEC50 [12]: < 5.00
pIC50 [12]: < 5.00
pIC50 [13]: < 5.00
pIC50 [14]: < 5.00
pIC50 [15]: < 5.00
